Key:
[1] = Ratio of Cmax in CD1 mouse lung to plasma assessed as (12aR)-12-(Diphenylmethyl)-7-hydroxy-3,4,12,12a-tetrahydro-1H-[1,4]oxazino[3,4-c]pyrido[2,1-f ][1,2,4]triazine-6,8-dione level at 15 mg/kg, po administered as single dose by LC-MS/MS analysis; format: ADME, organism-based; conditions: other tissue
[2] = Cytotoxicity against human HepG2 cells assessed as reduction in cell viability measured after 24 hrs in presence of galactose by MTT assay; format: cell-based
[3] = MRTlast in CD1 mouse heart assessed as (12aR)-12-(Diphenylmethyl)-7-hydroxy-3,4,12,12a-tetrahydro-1H-[1,4]oxazino[3,4-c]pyrido[2,1-f ][1,2,4]triazine-6,8-dione level at 15 mg/kg, po administered as single dose measured up to 24 hrs by LC-MS/MS analysis; format: ADME, organism-based; conditions: in vivo
[4] = Ratio of free drug level in CD1 mouse blood assessed as (12aR)-12-(Diphenylmethyl)-7-hydroxy-3,4,12,12a-tetrahydro-1H-[1,4]oxazino[3,4-c]pyrido[2,1-f ][1,2,4]triazine-6,8-dione level at 20 mg/kg, po to EC50 for antiviral activity against Influenza A/California/04/2009 (H1N1)pdm09 infected in MDCK cells; format: ADME, organism-based; conditions: in vivo
[5] = Ratio of AUClast in CD1 mouse lung to plasma assessed as (12aR)-12-(Diphenylmethyl)-7-hydroxy-3,4,12,12a-tetrahydro-1H-[1,4]oxazino[3,4-c]pyrido[2,1-f ][1,2,4]triazine-6,8-dione level at 15 mg/kg, po administered as single dose measured up to 24 hrs by LC-MS/MS analysis; format: ADME, organism-based; conditions: other tissue
[6] = Half life in CD1 mouse small intestine assessed as (12aR)-12-(Diphenylmethyl)-7-hydroxy-3,4,12,12a-tetrahydro-1H-[1,4]oxazino[3,4-c]pyrido[2,1-f ][1,2,4]triazine-6,8-dione level at 15 mg/kg, po administered as single dose measured up to 24 hrs by LC-MS/MS analysis; format: ADME, organism-based; conditions: in vivo
[7] = Half life in CD1 mouse brain assessed as (12aR)-12-(Diphenylmethyl)-7-hydroxy-3,4,12,12a-tetrahydro-1H-[1,4]oxazino[3,4-c]pyrido[2,1-f ][1,2,4]triazine-6,8-dione level at 15 mg/kg, po administered as single dose measured up to 24 hrs by LC-MS/MS analysis; format: ADME, organism-based; conditions: in vivo
[8] = Cytotoxicity against human PBMC cells assessed as reduction in cell viability by ATP bioluminescence assay; format: cell-based
[9] = Acute toxicity in CD1 mouse assessed as effect on body weight at 2000 mg/kg, po measured for 2 weeks; format: organism-based; conditions: in vivo, 336 h
[10] = Stability in rat plasma assessed as parent compound remaining at 1 uM measured after 4 hrs by LC-MS/MS analysis; format: ADME, cell-free; conditions: read-out: Stability
[11] = Tmax in CD1 mouse blood assessed as (12aR)-12-(Diphenylmethyl)-7-hydroxy-3,4,12,12a-tetrahydro-1H-[1,4]oxazino[3,4-c]pyrido[2,1-f ][1,2,4]triazine-6,8-dione level at 15 mg/kg, po administered as single dose measured up to 24 hrs by LC-MS/MS analysis; format: ADME, organism-based; conditions: in vivo
[12] = Half life in CD1 mouse trachea assessed as (12aR)-12-(Diphenylmethyl)-7-hydroxy-3,4,12,12a-tetrahydro-1H-[1,4]oxazino[3,4-c]pyrido[2,1-f ][1,2,4]triazine-6,8-dione level at 15 mg/kg, po administered as single dose measured up to 24 hrs by LC-MS/MS analysis; format: ADME, organism-based; conditions: in vivo
[13] = AUCinfinity in CD1 mouse liver assessed as (12aR)-12-(Diphenylmethyl)-7-hydroxy-3,4,12,12a-tetrahydro-1H-[1,4]oxazino[3,4-c]pyrido[2,1-f ][1,2,4]triazine-6,8-dione level at 15 mg/kg, po administered as single dose measured up to 24 hrs by LC-MS/MS analysis; format: ADME, organism-based; set-up: dose 15 mg/kg, route oral, time infinity; conditions: in vivo
[14] = Ratio of AUClast in CD1 mouse blood to plasma assessed as (12aR)-12-(Diphenylmethyl)-7-hydroxy-3,4,12,12a-tetrahydro-1H-[1,4]oxazino[3,4-c]pyrido[2,1-f ][1,2,4]triazine-6,8-dione level at 15 mg/kg, po administered as single dose measured up to 24 hrs by LC-MS/MS analysis; format: ADME, organism-based; conditions: in vivo
[15] = Cmax in CD1 mouse kidney assessed as (12aR)-12-(Diphenylmethyl)-7-hydroxy-3,4,12,12a-tetrahydro-1H-[1,4]oxazino[3,4-c]pyrido[2,1-f ][1,2,4]triazine-6,8-dione level at 15 mg/kg, po administered as single dose measured up to 24 hrs by LC-MS/MS analysis; format: ADME, organism-based; set-up: dose 15 mg/kg, route oral; conditions: in vivo
[16] = Ratio of AUClast in CD1 mouse liver to plasma assessed as baloxavir acid level at 15 mg/kg, po administered as single dose measured up to 24 hrs by LC-MS/MS analysis; format: ADME, organism-based; conditions: other tissue
[17] = MRTlast in CD1 mouse heart assessed as baloxavir acid level at 15 mg/kg, po administered as single dose measured up to 24 hrs by LC-MS/MS analysis; format: ADME, organism-based; conditions: in vivo
[18] = Oral bioavailability in CD1 mouse assessed as baloxavir acid level at 15 mg/kg administered as single dose by LC-MS/MS analysis; format: ADME, organism-based; conditions: in vivo
[19] = Cmax in CD1 mouse lung assessed as baloxavir acid level at 15 mg/kg, po administered as single dose measured up to 24 hrs by LC-MS/MS analysis; format: ADME, organism-based; set-up: dose 15 mg/kg, route oral; conditions: in vivo
[20] = AUClast in CD1 mouse plasma assessed as baloxavir acid level at 15 mg/kg, po administered as single dose measured up to 24 hrs by LC-MS/MS analysis; format: ADME, organism-based; set-up: time < 24 hr, dose 15 mg/kg, route oral; conditions: in vivo
[21] = Cmax in CD1 mouse brain assessed as baloxavir acid level at 15 mg/kg, po administered as single dose measured up to 24 hrs by LC-MS/MS analysis; format: ADME, organism-based; set-up: dose 15 mg/kg, route oral; conditions: in vivo
[22] = AUClast in CD1 mouse kidney assessed as baloxavir acid level at 15 mg/kg, po administered as single dose measured up to 24 hrs by LC-MS/MS analysis; format: ADME, organism-based; conditions: in vivo
[23] = Elimination rate constant in CD1 mouse spleen assessed as baloxavir acid level at 15 mg/kg, po administered as single dose measured up to 24 hrs by LC-MS/MS analysis; format: ADME, organism-based; conditions: in vivo
[24] = Cmax in CD1 mouse heart assessed as baloxavir acid level at 15 mg/kg, po administered as single dose measured up to 24 hrs by LC-MS/MS analysis; format: ADME, organism-based; set-up: dose 15 mg/kg, route oral; conditions: in vivo
[25] = MRTlast in CD1 mouse small intestine assessed as baloxavir acid level at 15 mg/kg, po administered as single dose measured up to 24 hrs by LC-MS/MS analysis; format: ADME, organism-based; conditions: in vivo
[26] = Tmax in CD1 mouse spleen assessed as baloxavir acid level at 15 mg/kg, po administered as single dose measured up to 24 hrs by LC-MS/MS analysis; format: ADME, organism-based; conditions: in vivo
[27] = Ratio of AUClast in CD1 mouse small intestine to plasma assessed as baloxavir acid level at 15 mg/kg, po administered as single dose measured up to 24 hrs by LC-MS/MS analysis; format: ADME, organism-based; conditions: other tissue
[28] = Cmax in CD1 mouse trachea assessed as baloxavir acid level at 15 mg/kg, po administered as single dose measured after 4 hrs by LC-MS/MS analysis; format: ADME, organism-based; set-up: dose 15 mg/kg, route oral; conditions: in vivo

## COC(=O)OCOc1c2n(ccc1=O)N(C(c1ccccc1)c1ccccc1)[C@@H]1COCCN1C2=O
[1]
  Ratio: 2.2
[2]
  CC50 at 24 h: 57 µM
[3]
  MRTlast: 1.88 h
[4]
  Ratio: 18
[5]
  Ratio AUC: 2.53
[6]
  t1/2: 1.28 h
[7]
  t1/2: 8.18 h
[8]
  CC50: 100 µM
[9]
  Activity: Non-Toxic
[10]
  remaining at 4 h, 1 µM: 0%
[11]
  Tmax: 30 min
[12]
  t1/2: 4.91 h
[13]
  AUC: 34838 ng·h/g
[14]
  Ratio AUC: 0.82
[15]
  Cmax: 5260 ng/g

## COC(=O)OCOc1c2n(ccc1=O)N([C@@H]1c3ccccc3SCc3c1ccc(F)c3F)[C@@H]1COCCN1C2=O [BALOXAVIR MARBOXIL]
[16]
  Ratio AUC: 189
[17]
  MRTlast: 4.84 h
[18]
  F: 26.9%
[19]
  Cmax: 1188 ng/g
[20]
  AUClast: 452 ng·h/mL
[21]
  Cmax: 21.9 ng/g
[22]
  AUClast: 21162 ng·h/g
[23]
  Kel: 0.2 h⁻¹
[24]
  Cmax: 1188 ng/g
[25]
  MRTlast: 1.58 h
[26]
  Tmax: 2 h
[27]
  Ratio AUC: 234
[28]
  Cmax: 277 ng/g
